In patent US9617267B2, “Compounds and methods for kinase modulation, and indications therefor” (Plexxikon Inc., priority 2009, dated 2017):
Like-named read-outs stand apart in the source and are kept apart here.

Experiments:
B-Raf [1] = biological target: B-Raf (Homo sapiens (Human), UniProt P15056); experiment: B-Raf kinase activity biochemical assay (AlphaScreen, biotin-MEK1 phosphorylation); conditions: B-Raf
Method: (§1) Compounds to be tested are diluted in dimethyl sulfoxide to a concentration of 0.1 mM. These are serially diluted 15 μL into 30 μL of dimethyl sulfoxide seven times in 96 well plates for a total of 8 dilution points, and for each dilution point 1 μL is added to a well of an assay plate. […] The reaction is started with addition of 10 μL of 200 μM ATP (i.e. final 100 μM ATP). After incubation of the kinase reaction for 45 minutes at room temperature, 5 μL/well of Stop Solution is added (25 mM Hepes pH 7.5, 100 mM EDTA, 0.01% BSA with donor beads (Streptavidin coated beads, Perkin Elmer), acceptor beads (Protein A coated, Perkin Elmer), and anti phosphor MEK1/2 antibody (CellSignal), each at final concentration 10 μg/mL). The plates are incubated for 3 hours at room temperature and read on Envision reader (Perkin Elmer). […] The signal vs. compound concentration is used to determine the IC50.

B-Raf [2] = experiment: as above; conditions: for Biochemical activity ratio B/V600E: ratio of IC50 B-Raf / B-Raf V600E; for Biochemical activity ratio B/C: ratio of IC50 B-Raf / c-Raf-1
Method: as §1

B-Raf V600E = B-Raf V600E (Homo sapiens (Human), UniProt P15056, V600E); experiment: B-Raf V600E kinase activity biochemical assay (AlphaScreen, biotin-MEK1 phosphorylation); conditions: for IC50: B-Raf V600E; for Biochemical activity ratio V600E/C: ratio of IC50 B-Raf V600E / c-Raf-1
Method: as §1

c-Raf-1 = c-Raf-1 (Homo sapiens, UniProt P04049); experiment: c-Raf-1 kinase activity biochemical assay (AlphaScreen, biotin-MEK1 phosphorylation)
Method: as §1

[3] = Relative solubility by turbidity threshold concentration in aqueous buffers (pH 1.5, 4.5, 6.8, 7.4); format: physicochemical; conditions: for turbidity threshold (L, M, H) 1.4: pH 1.4 [sic] (method: SGF pH 1.5); for turbidity threshold (L, M, H) 4.5: pH 4.5 (SIF); for turbidity threshold (L, M, H) 6.8: pH 6.8 (SIF); for turbidity threshold (L, M, H) 7.4: pH 7.4 (HEPES)
Method in brief: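 Solubility class (high >250 μM, moderate 31.3–250 μM, low <31.3 μM) comes from the concentration where absorbance reaches a 0.01 threshold, averaged across 490/535/650 nm. Samples were compound dilutions from DMSO stock, 1 μL into 99 μL buffer at pH 1.5, 4.5, 6.8 or 7.4.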

CYP1A2 = CYP1A2 (Homo sapiens (Human), UniProt P05177); experiment: CYP enzyme inhibition, fluorescent substrate (CEC)
Method: (§2) CYP (Cytochrome P450) enzymes are the major drug metabolizing enzymes present in the liver. The inhibition of CYP enzyme activity (IC50) for each of CYP1A2, CYP2C19, CYP2C9, CYP2D6, CYP3A4(BFC) and CYP3A4(BQ) is determined for compounds, where inhibition of metabolism of a known substrate leads to a decrease in the fluorescence of the metabolized product. The fluorescence of the product is monitored as a function of compound concentration.
(§3) Compounds are dissolved in dimethyl sulfoxide to a concentration of 100 mM. These are diluted 1 μL into 82 μL of acetonitrile. An 11 μL aliquot of this solution is then added to 204 μL of cofactor mix (1.3% NADPH Regeneration system Solution A, 1.04% NADPH Regeneration system Solution B from BD Biosciences, 5% acetonitrile and 0.05% dimethyl sulfoxide). These are then serially diluted 1:1 (160 μL to 160 μL co-factor mix) for a total of 10 points. A 10 μL aliquot of this final mixture is dispensed into 384 well assay plates and incubated for 10 minutes at 37° C. Enzyme and substrate mix (10 μL; 0.5 pmol CYP1A2/5 μM CEC; 1.0 pmol CYP2C9/75 μM MFC; 0.5 pmol CYP2C19/25 μM CEC; 1.5 pmol CYP2D6/1.5 μM AMMC; 1.0 pmol CYP3A4/50 μM BFC; or 1.0 pmol CYP3A4/40 μM BQ) is added to these assay plates. Assay plates are incubated at 37° C. (CYP1A2-15 min; CYP2C9-45 min; CYP2C19, 2D6 and 3A4-30 min) and read in a Tecan Safire 2 plate reader (CYP1A2, 2C19 and 3A4 409 ex/460 em; CYP2C9 and 2D6 409 ex/530 em). The signal versus compound concentration is used to determine the IC50. The enzymes and substrates for this assay are obtained from BD Biosciences.

CYP2C19 = CYP2C19 (Homo sapiens (Human), UniProt P33261); experiment: CYP enzyme inhibition, fluorescent substrate (CEC)
Method: as §2
(§4) Compounds are dissolved in dimethyl sulfoxide to a concentration of 100 mM. These are diluted 1 μL into 82 μL of acetonitrile. […] These are then serially diluted 1:1 (160 μL to 160 μL co-factor mix) for a total of 10 points. A 10 μL aliquot of this final mixture is dispensed into 384 well assay plates and incubated for 10 minutes at 37° C. […] Assay plates are incubated at 37° C. […] The signal versus compound concentration is used to determine the IC50. The enzymes and substrates for this assay are obtained from BD Biosciences.

CYP2C9 = CYP2C9 (Homo sapiens (Human), UniProt P11712); experiment: CYP enzyme inhibition, fluorescent substrate (MFC)
Method: as §2, §4

CYP2D6 = CYP2D6 (Homo sapiens (Human), UniProt P10635); experiment: CYP enzyme inhibition, fluorescent substrate (AMMC); format: in vitro ADME; conditions: read-out: Cyp IC50 2D6
Method: as §2, §3

CYP3A4(BFC) = CYP3A4(BFC) (Homo sapiens (Human), UniProt P08684); experiment: CYP enzyme inhibition, fluorescent substrate BFC
Method: as §2, §4

[4] = read-out: Cyp IC50 2C19, CYP2C19, substrate CEC
[5] = read-out: Cyp IC50 2C9, CYP2C9, substrate MFC
[6] = read-out: Cyp IC50 3A4(BFC), CYP3A4, substrate BFC
[7] = read-out: Cyp IC50 1A2, CYP1A2, substrate CEC

Chain of CYP1A2 (P05177 whole entry): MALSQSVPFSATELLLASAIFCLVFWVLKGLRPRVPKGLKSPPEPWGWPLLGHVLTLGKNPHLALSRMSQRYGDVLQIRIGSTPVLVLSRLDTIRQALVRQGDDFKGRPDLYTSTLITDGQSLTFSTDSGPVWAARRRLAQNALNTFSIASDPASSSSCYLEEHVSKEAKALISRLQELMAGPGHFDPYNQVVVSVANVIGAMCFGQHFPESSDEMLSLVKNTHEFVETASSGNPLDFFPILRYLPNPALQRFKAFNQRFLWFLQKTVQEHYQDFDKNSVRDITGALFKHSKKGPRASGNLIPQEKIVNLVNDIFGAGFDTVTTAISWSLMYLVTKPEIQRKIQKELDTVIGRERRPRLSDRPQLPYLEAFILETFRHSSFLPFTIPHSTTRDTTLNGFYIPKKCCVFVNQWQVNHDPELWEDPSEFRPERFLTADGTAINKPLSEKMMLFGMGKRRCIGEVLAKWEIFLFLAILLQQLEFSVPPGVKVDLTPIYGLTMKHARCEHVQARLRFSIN
Chain of CYP2C19 (P33261 whole entry): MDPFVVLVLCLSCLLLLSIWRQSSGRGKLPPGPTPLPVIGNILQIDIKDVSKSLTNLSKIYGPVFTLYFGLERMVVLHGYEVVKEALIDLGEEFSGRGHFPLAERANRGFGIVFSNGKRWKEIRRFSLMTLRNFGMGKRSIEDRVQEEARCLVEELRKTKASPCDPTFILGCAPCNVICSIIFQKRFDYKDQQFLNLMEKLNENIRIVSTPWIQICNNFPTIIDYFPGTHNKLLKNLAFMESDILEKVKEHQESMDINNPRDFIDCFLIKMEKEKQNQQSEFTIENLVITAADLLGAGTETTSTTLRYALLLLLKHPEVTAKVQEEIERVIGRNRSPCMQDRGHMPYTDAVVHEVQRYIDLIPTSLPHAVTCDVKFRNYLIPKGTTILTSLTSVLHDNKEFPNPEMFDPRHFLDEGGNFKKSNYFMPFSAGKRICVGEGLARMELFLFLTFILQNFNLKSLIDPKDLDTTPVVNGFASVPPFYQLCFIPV
Chain of c-Raf-1 (P04049 whole entry, looked up): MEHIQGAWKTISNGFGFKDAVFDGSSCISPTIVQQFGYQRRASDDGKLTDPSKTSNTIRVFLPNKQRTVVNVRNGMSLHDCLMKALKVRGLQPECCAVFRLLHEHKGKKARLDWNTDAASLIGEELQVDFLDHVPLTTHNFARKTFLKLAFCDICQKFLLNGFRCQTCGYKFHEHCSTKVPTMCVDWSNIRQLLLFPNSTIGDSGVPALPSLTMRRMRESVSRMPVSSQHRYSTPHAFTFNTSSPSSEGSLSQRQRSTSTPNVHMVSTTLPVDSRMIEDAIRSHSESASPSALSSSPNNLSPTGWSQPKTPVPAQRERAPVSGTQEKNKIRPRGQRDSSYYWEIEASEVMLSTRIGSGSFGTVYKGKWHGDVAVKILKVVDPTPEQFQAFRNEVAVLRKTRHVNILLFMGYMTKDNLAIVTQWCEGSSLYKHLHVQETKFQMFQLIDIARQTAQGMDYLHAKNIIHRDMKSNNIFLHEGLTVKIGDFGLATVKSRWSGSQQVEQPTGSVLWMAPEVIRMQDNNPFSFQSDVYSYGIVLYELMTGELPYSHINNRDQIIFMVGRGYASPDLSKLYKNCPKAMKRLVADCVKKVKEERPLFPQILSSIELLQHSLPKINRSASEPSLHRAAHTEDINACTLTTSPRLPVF
Chain of B-Raf (Homo sapiens (Human), UniProt P15056) (P15056 whole entry): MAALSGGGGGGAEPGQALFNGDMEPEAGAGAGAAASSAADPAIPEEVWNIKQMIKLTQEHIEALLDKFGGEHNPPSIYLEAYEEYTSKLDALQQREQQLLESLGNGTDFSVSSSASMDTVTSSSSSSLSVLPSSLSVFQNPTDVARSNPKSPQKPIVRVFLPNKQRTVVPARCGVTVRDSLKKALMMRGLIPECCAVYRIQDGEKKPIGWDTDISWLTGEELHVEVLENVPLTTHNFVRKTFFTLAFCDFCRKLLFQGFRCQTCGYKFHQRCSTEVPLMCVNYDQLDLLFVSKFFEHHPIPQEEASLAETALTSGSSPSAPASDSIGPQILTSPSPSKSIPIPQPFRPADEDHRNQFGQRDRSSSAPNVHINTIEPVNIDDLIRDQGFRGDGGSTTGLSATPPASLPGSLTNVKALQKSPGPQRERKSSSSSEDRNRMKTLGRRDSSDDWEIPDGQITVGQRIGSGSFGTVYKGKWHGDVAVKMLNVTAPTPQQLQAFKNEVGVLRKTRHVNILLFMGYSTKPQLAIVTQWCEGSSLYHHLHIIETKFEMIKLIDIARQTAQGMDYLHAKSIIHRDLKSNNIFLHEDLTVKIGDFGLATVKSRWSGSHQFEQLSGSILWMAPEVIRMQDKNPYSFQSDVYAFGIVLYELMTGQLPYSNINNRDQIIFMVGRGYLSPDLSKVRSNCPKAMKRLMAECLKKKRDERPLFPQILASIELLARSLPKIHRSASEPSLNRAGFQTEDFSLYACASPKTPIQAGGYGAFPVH
Chain of CYP2C9 (P11712 whole entry): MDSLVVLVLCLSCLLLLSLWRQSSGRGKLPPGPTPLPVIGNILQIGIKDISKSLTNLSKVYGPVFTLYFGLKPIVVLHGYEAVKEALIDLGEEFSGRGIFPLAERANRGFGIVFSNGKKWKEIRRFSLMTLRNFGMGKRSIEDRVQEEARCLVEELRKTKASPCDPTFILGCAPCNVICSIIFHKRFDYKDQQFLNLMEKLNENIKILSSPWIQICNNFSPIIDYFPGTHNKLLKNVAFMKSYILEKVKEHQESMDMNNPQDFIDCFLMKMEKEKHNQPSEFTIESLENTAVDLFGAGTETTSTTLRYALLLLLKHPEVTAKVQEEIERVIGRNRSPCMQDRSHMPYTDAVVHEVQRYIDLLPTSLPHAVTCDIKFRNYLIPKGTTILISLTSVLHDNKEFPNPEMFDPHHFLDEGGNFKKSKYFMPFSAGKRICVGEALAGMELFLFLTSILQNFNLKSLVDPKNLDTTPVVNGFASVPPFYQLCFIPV
Chain of CYP3A4(BFC) (P08684 whole entry): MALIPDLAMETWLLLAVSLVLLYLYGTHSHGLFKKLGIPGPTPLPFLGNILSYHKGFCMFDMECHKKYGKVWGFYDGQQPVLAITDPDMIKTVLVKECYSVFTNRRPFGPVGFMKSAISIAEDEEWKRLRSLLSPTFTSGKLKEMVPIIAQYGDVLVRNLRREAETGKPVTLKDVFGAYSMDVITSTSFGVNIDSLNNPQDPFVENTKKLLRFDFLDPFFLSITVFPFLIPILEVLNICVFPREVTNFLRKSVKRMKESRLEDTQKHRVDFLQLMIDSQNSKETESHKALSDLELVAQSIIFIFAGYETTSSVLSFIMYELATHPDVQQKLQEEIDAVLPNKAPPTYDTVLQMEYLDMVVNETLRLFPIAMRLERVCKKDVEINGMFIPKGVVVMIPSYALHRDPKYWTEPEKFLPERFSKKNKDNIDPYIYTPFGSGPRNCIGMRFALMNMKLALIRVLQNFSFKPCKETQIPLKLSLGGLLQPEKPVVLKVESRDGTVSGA
Chain of B-Raf V600E (P15056 whole entry V600E): as the sequence (P15056 whole entry) above, with V600E counted along it
Chain of CYP2D6 (P10635 whole entry): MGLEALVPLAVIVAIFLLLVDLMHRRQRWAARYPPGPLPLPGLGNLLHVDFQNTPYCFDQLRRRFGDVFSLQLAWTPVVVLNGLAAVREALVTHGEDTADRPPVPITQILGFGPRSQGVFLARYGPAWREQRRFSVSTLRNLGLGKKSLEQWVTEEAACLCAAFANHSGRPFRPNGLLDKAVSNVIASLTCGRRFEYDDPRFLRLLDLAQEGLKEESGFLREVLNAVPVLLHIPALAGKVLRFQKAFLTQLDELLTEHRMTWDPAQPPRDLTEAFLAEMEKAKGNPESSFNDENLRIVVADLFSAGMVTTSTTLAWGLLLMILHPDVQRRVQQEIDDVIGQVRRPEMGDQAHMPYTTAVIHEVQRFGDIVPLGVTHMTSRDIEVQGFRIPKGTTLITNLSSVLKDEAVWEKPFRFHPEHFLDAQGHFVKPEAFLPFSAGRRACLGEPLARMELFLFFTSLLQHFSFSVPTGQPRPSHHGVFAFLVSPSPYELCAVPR

SMILES	IC50 (B-Raf [1])	Biochemical activity ratio B/V600E (B-Raf [2])	Biochemical activity ratio B/C (B-Raf [2])	IC50 (B-Raf V600E)	Biochemical activity ratio V600E/C (B-Raf V600E)	IC50 (c-Raf-1)	turbidity threshold (L, M, H) 1.4 [3]	turbidity threshold (L, M, H) 4.5 [3]	turbidity threshold (L, M, H) 6.8 [3]	IC50 (CYP1A2; human, 15 min)	IC50 (CYP2C19; [4])	IC50 (CYP2C9; [5])	IC50 (CYP2D6)	IC50 (CYP3A4(BFC))	turbidity threshold (L, M, H) 7.4 [3]	IC50 (CYP3A4(BFC); [6])	IC50 (CYP2C9)	IC50 (CYP1A2; [7])	IC50 (CYP2C19)
COc1ncnc2[nH]cc(C(=O)c3c(F)ccc(NS(=O)(=O)c4cc(C)cc(C)c4)c3F)c12 [P-1025, N-[2,4-Difluoro-3-(4-methoxy-7H-pyrrolo[2,3-d]pyrimidine-5-carbonyl)-phenyl]-3,5-dimethyl-benzenesulfonamide]	> 0.1 µM	0.1-10	>10	> 0.1 µM	0.1-10	< 0.1 µM	M (moderate solubility if the threshold concentration is 31.3 μM to 250 μM)	L (low solubility if the threshold concentration is <31.3 μM)	M (moderate solubility if the threshold concentration is 31.3 μM to 250 μM)	> 10 µM	> 10 µM	> 10 µM	> 10 µM	5 to 10 µM					
CNc1ncnc2[nH]cc(C(=O)c3c(F)ccc(NS(=O)(=O)c4ccc(C(F)(F)F)cc4)c3F)c12 [P-1026, N-[2,4-Difluoro-3-(4-methylamino-7H-pyrrolo[2,3-d]pyrimidine-5-carbonyl)-phenyl]-4-trifluoromethyl-benzenesulfonamide]	> 0.1 µM	0.1-10	>10	> 0.1 µM	>10	< 0.1 µM			M (moderate solubility if the threshold concentration is 31.3 μM to 250 μM)	> 10 µM	> 10 µM	> 10 µM	> 10 µM		M (moderate solubility if the threshold concentration is 31.3 μM to 250 μM)	> 10 µM			
Cc1cc(C)cc(S(=O)(=O)Nc2ccc(F)c(C(=O)c3c[nH]c4ncnc(C)c34)c2F)c1 [P-1027, N-[2,4-Difluoro-3-(4-methyl-7H-pyrrolo[2,3-d]pyrimidine-5-carbonyl)-phenyl]-3,5-dimethyl-benzenesulfonamide]	> 0.1 µM	0.1-10	>10	> 0.1 µM	0.1-10	< 0.1 µM		L (low solubility if the threshold concentration is <31.3 μM)	M (moderate solubility if the threshold concentration is 31.3 μM to 250 μM)	> 10 µM	> 10 µM	> 10 µM	> 10 µM			> 10 µM			
CC(C)COc1ncnc2[nH]cc(C(=O)c3c(F)ccc(NS(=O)(=O)c4ccc(C(F)(F)F)cc4)c3F)c12 [P-1028, N-[2,4-Difluoro-3-(4-isobutoxy-7H-pyrrolo[2,3-d]pyrimidine-5-carbonyl)-phenyl]-4-trifluoromethyl-benzenesulfonamide]	> 0.1 µM	0.1-10	>10	> 0.1 µM	>10	< 0.1 µM	M (moderate solubility if the threshold concentration is 31.3 μM to 250 μM)	L (low solubility if the threshold concentration is <31.3 μM)	L (low solubility if the threshold concentration is <31.3 μM)	> 10 µM	> 10 µM		> 10 µM		M (moderate solubility if the threshold concentration is 31.3 μM to 250 μM)	> 10 µM	5 to 10 µM		
CC(C)c1ncnc2[nH]cc(C(=O)c3c(F)ccc(NS(=O)(=O)c4ccc(C(F)(F)F)cc4)c3F)c12 [P-1029, N-[2,4-Difluoro-3-(4-isopropyl-7H-pyrrolo[2,3-d]pyrimidine-5-carbonyl)-phenyl]-4-trifluoromethyl-benzenesulfonamide]	< 0.1 µM	0.1-10	>10	> 0.1 µM	>10	< 0.1 µM	M (moderate solubility if the threshold concentration is 31.3 μM to 250 μM)						> 10 µM		M (moderate solubility if the threshold concentration is 31.3 μM to 250 μM)	> 10 µM	5 to 10 µM	> 10 µM	5 to 10 µM
CCCc1ccc(S(=O)(=O)Nc2ccc(F)c(C(=O)c3c[nH]c4ncnc(O)c34)c2F)cc1 [P-1030, N-[2,4-Difluoro-3-(4-hydroxy-7H-pyrrolo[2,3-d]pyrimidine-5-carbonyl)-phenyl]-4-propyl-benzenesulfonamide]	> 0.1 µM	<0.1	0.1-10	> 0.1 µM	>10	< 0.1 µM		M (moderate solubility if the threshold concentration is 31.3 μM to 250 μM)			> 10 µM	> 10 µM	> 10 µM		M (moderate solubility if the threshold concentration is 31.3 μM to 250 μM)	> 10 µM		> 10 µM	
Nc1ncnc2[nH]cc(C(=O)c3c(F)ccc(NS(=O)(=O)c4ccc(C(F)(F)F)cc4)c3F)c12 [P-1031, N-[3-(4-Amino-7H-pyrrolo[2,3-d]pyrimidine-5-carbonyl)-2,4-difluoro-phenyl]-4-trifluoromethyl-benzenesulfonamide]	> 0.1 µM	0.1-10	>10	> 0.1 µM	>10	< 0.1 µM	M (moderate solubility if the threshold concentration is 31.3 μM to 250 μM)	M (moderate solubility if the threshold concentration is 31.3 μM to 250 μM)	M (moderate solubility if the threshold concentration is 31.3 μM to 250 μM)		> 10 µM	> 10 µM	> 10 µM		M (moderate solubility if the threshold concentration is 31.3 μM to 250 μM)	> 10 µM		> 10 µM	
